Assay results reported in PubChem BioAssay AID1259407 (Chemical Carcinogenesis Research Information System (CCRIS), 2018).
Active and inactive are the calls of the source. No rule for the calls is given here.

Tested on: CCRIS mutagenicity, Ames/micronucleus/aberration tests
Experiment: CCRIS mutagenicity studies
[1] = Test System: AMES SALMONELLA TYPHIMURIUM, Strain/Indicator: TA98, Metabolic Activation: NONE, Method: PREINCUBATION
[2] = Test System: AMES SALMONELLA TYPHIMURIUM, Strain/Indicator: TA100, Metabolic Activation: NONE, Method: PREINCUBATION
[3] = Test System: AMES SALMONELLA TYPHIMURIUM, Strain/Indicator: TA1535, Metabolic Activation: NONE, Method: PREINCUBATION
[4] = Test System: AMES SALMONELLA TYPHIMURIUM, Strain/Indicator: TA1537, Metabolic Activation: NONE, Method: PREINCUBATION

O=C1OC(c2ccc(O)cc2)(c2ccc(O)cc2)c2ccccc21
mutagenic call (End Point: In vivo micronucleus, Test System: Peripheral blood normochromatic erythrocytes, Species: Mouse, Strain/Sex: Haploinsufficient p16(Ink4a)p19(Arf), Route: Oral): active; positive
mutagenic call (End Point: In vivo micronucleus, Test System: Polychromatic erythrocytes, Species: Mouse, Strain/Sex: C57BL/6TacBr-[KO]p53[TSG-p53], Route: Oral): active; positive at all days
mutagenic call (Test System: AMES SALMONELLA TYPHIMURIUM, Strain/Indicator: TA98, Metabolic Activation: HAMSTER, LIVER, S-9, AROCLOR 1254 (10%), Method: PREINCUBATION): inactive; negative
mutagenic call [1]: inactive; negative
mutagenic call (Test System: AMES SALMONELLA TYPHIMURIUM, Strain/Indicator: TA98, Metabolic Activation: RAT, LIVER, S-9, AROCLOR 1254 (10%), Method: PREINCUBATION): inactive; negative
mutagenic call (Test System: AMES SALMONELLA TYPHIMURIUM, Strain/Indicator: TA100, Metabolic Activation: HAMSTER, LIVER, S-9, AROCLOR 1254 (10%), Method: PREINCUBATION): inactive; negative
mutagenic call [2]: inactive; negative
mutagenic call (Test System: AMES SALMONELLA TYPHIMURIUM, Strain/Indicator: TA100, Metabolic Activation: RAT, LIVER, S-9, AROCLOR 1254 (10%), Method: PREINCUBATION): inactive; negative
mutagenic call (Test System: AMES SALMONELLA TYPHIMURIUM, Strain/Indicator: TA1535, Metabolic Activation: HAMSTER, LIVER, S-9, AROCLOR 1254 (10%), Method: PREINCUBATION): inactive; negative
mutagenic call [3]: inactive; negative
mutagenic call (Test System: AMES SALMONELLA TYPHIMURIUM, Strain/Indicator: TA1535, Metabolic Activation: RAT, LIVER, S-9, AROCLOR 1254 (10%), Method: PREINCUBATION): inactive; negative
mutagenic call (Test System: AMES SALMONELLA TYPHIMURIUM, Strain/Indicator: TA1537, Metabolic Activation: HAMSTER, LIVER, S-9, AROCLOR 1254 (10%), Method: PREINCUBATION): inactive; negative
mutagenic call [4]: inactive; negative
mutagenic call (Test System: AMES SALMONELLA TYPHIMURIUM, Strain/Indicator: TA1537, Metabolic Activation: RAT, LIVER, S-9, AROCLOR 1254 (10%), Method: PREINCUBATION): inactive; negative
mutagenic call (Test System: Syrian hamster embryo cells, Strain/Indicator: HPRT/6-thioguanine, Method: Plate): active; positive

CCOc1ccc2ccccc2c1
mutagenic call [1]: inactive; negative
mutagenic call (Test System: AMES SALMONELLA TYPHIMURIUM, Strain/Indicator: TA98, Metabolic Activation: RAT LIVER S-9, PHENOBARBITAL AND BETA-NAPHTHOFLAVONE, Method: PREINCUBATION): inactive; negative
mutagenic call [2]: inactive; negative
mutagenic call (Test System: AMES SALMONELLA TYPHIMURIUM, Strain/Indicator: TA100, Metabolic Activation: RAT LIVER S-9, PHENOBARBITAL AND BETA-NAPHTHOFLAVONE, Method: PREINCUBATION): inactive; negative
mutagenic call [3]: inactive; negative
mutagenic call (Test System: AMES SALMONELLA TYPHIMURIUM, Strain/Indicator: TA1535, Metabolic Activation: RAT LIVER S-9, PHENOBARBITAL AND BETA-NAPHTHOFLAVONE, Method: PREINCUBATION): inactive; negative
mutagenic call [4]: inactive; negative
mutagenic call (Test System: AMES SALMONELLA TYPHIMURIUM, Strain/Indicator: TA1537, Metabolic Activation: RAT LIVER S-9, PHENOBARBITAL AND BETA-NAPHTHOFLAVONE, Method: PREINCUBATION): inactive; negative
mutagenic call (Test System: E.COLI, Strain/Indicator: WP2UVRA/PKM101, Metabolic Activation: NONE, Method: PREINCUBATION): inactive; negative
mutagenic call (Test System: E.COLI, Strain/Indicator: WP2UVRA/PKM101, Metabolic Activation: RAT LIVER S-9, PHENOBARBITAL AND BETA-NAPHTHOFLAVONE, Method: PREINCUBATION): inactive; negative

CC(=O)OCc1ccccc1[N+](=O)[O-]
mutagenic call [1]: inactive; negative
mutagenic call [2]: inactive; negative
mutagenic call (Test System: AMES SALMONELLA TYPHIMURIUM, Strain/Indicator: TA100, Metabolic Activation: RAT, LIVER, S-9, AROCLOR 1254, Method: PREINCUBATION): inactive; negative

O=NSCCO
mutagenic call [2]: active; positive

O=c1[nH]cc(N(CCCl)CCCl)c(=O)[nH]1
mutagenic call (Test System: AMES SALMONELLA TYPHIMURIUM, Strain/Indicator: TA1535, Metabolic Activation: NONE, Method: STANDARD PLATE): active; positive
mutagenic call (Test System: E. COLI, Strain/Indicator: WP2 UVRA, Metabolic Activation: HAMSTER, LIVER, S-9, AROCLOR 1254, Method: STANDARD PLATE): active; positive
mutagenic call (Test System: E. COLI, Strain/Indicator: WP2 UVRA, Metabolic Activation: HAMSTER, LIVER, S-9, Method: STANDARD PLATE): active; positive
mutagenic call (Test System: E. COLI, Strain/Indicator: WP2 UVRA, Metabolic Activation: MOUSE, LIVER, S-9, Method: STANDARD PLATE): active; positive
mutagenic call (Test System: E. COLI, Strain/Indicator: WP2 UVRA, Metabolic Activation: NONE, Method: STANDARD PLATE): active; positive
mutagenic call (Test System: E. COLI, Strain/Indicator: WP2 UVRA, Metabolic Activation: RAT, LIVER, S-9, AROCLOR 1254, Method: STANDARD PLATE): active; positive
mutagenic call (Test System: E. COLI, Strain/Indicator: WP2 UVRA, Metabolic Activation: RAT, LIVER, S-9, Method: STANDARD PLATE): active; positive
mutagenic call (Test System: MOUSE LYMPHOMA, Strain/Indicator: L5178Y (TK+/TK-), Metabolic Activation: NONE, Method: SUSPENSION/PLATE): active; positive
mutagenic call (Test System: MOUSE LYMPHOMA, Strain/Indicator: L5178Y (TK+/TK-), Metabolic Activation: RAT, LIVER, S-9, AROCLOR 1254, Method: SUSPENSION/PLATE): active; positive
